Results on three molecules are retold here after PMC6090053, “Substrate Specificity of Acyltransferase Domains for Efficient Transfer of Acyl Groups” (Frontiers in Microbiology, 2018).

Assay [1] addresses T1, AT4FkbB of FK520 PKS (Streptomyces hygroscopicus, UniProt Q9KIE0).
T1 construct: gene fkbB; excised AT domain of module 4 of FkbB, synthetic gene, E. coli BL21(DE3), Ni-NTA
Kind of assay: self-acylation, HPLC-MS of intact protein. To be noted: 200 uM acyl-CoA, 20 uM AT, pH 8.0, 25 C, 1 h; covalent acyl-enzyme. In kind it is biochemical. The text has this:
(§1) self-acylation, HPLC-MS of intact protein on AT4FkbB of FK520 PKS

Assay [2] addresses T1, AT4FkbB of FK520 PKS. Kind of assay: self-acylation, HPLC-MS of intact protein. To be noted: 200 uM acyl-CoA, 20 uM AT, pH 8.0, 25 C, 1 h; covalent acyl-enzyme. In kind it is biochemical.
Text: as §1
This is another data set of the same source.

Assay [3] concerns the target T2, AT3lsd12 of lasalocid PKS (Streptomyces lasalocidi, UniProt B6ZK65).
T2 construct: gene lsd12; excised AT domain of module 3, synthetic gene, E. coli BL21(DE3), Ni-NTA
Kind of assay: self-acylation, HPLC-MS of intact protein. In kind it is biochemical. The conditions noted are these: 200 uM acyl-CoA, 20 uM AT, pH 8.0, 25 C, 1 h; covalent acyl-enzyme. The source says:
(§2) self-acylation, HPLC-MS of intact protein on AT3lsd12 of lasalocid PKS

Assay [4] has as its target T1, AT4FkbB of FK520 PKS. Kind of assay: self-acylation, HPLC-MS of intact protein. The conditions noted are these: 200 uM acyl-CoA, 20 uM AT, pH 8.0, 25 C, 1 h; covalent acyl-enzyme. Format: biochemical.
Text: as §1
The source holds these as a separate data set.

Assay [5] addresses T2, AT3lsd12 of lasalocid PKS. Kind of assay: self-acylation, HPLC-MS of intact protein. The conditions noted are these: 200 uM acyl-CoA, 20 uM AT, pH 8.0, 25 C, 1 h; covalent acyl-enzyme. In kind it is biochemical.
Text: as §2
This is another data set of the same source.

The target in assay [6] is T3, AT5monAIV of monensin PKS (Streptomyces virginiae, UniProt Q846X3).
T3 construct: gene monAIV; excised AT domain of module 5, synthetic gene, E. coli BL21(DE3), Ni-NTA
T3 sequence (Q846X3 entry or part of it): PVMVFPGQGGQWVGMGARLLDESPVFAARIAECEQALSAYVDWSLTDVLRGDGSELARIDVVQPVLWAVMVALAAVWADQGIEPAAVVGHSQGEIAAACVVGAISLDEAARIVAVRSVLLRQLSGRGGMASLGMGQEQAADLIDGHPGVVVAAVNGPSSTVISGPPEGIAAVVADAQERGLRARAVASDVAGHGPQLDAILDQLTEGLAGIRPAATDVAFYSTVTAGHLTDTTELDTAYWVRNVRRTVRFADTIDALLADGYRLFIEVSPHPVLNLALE
Kind of assay: self-acylation, HPLC-MS of intact protein. To be noted: 200 uM acyl-CoA, 20 uM AT, pH 8.0, 25 C, 1 h; covalent acyl-enzyme. In kind it is biochemical. The text has this: (§3) self-acylation, HPLC-MS of intact protein on AT5monAIV of monensin PKS

The target of assay [7] is T4, AT4FkbB of FK506 PKS (Streptomyces tsukubensis, UniProt W8RMH0).
T4 construct: gene fkbB; excised AT domain of module 4 of FkbB, E. coli BL21(DE3), Ni-NTA
T4 sequence (W8RMH0 entry or part of it): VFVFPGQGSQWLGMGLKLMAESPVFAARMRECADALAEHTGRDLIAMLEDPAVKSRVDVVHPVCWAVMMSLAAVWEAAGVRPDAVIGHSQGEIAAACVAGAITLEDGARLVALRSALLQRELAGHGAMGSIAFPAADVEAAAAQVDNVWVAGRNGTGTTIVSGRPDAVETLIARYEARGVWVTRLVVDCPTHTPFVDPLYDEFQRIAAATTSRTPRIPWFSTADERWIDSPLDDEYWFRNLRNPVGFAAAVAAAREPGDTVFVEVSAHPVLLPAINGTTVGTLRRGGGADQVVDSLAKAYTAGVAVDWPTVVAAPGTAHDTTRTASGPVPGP
Kind of assay: self-acylation, HPLC-MS of intact protein. Format: biochemical. The conditions noted are these: 200 uM acyl-CoA, 20 uM AT, pH 8.0, 25 C, 1 h; covalent acyl-enzyme at Ser89. The source says:
(§4) self-acylation, HPLC-MS of intact protein on AT4FkbB of FK506 PKS

The target in assay [8] is T5, AT4FkbB of FK506 PKS (Streptomyces tsukubensis, UniProt W8RMH0, L6753I/V6754D/V6755T).
T5 construct: gene fkbB; excised AT domain of module 4 of FkbB, E. coli BL21(DE3), Ni-NTA
T5 sequence (W8RMH0 entry or part of it L6753I/V6754D/V6755T): as the sequence (W8RMH0 entry or part of it) above, with L185I, V186D, V187T counted along it
Kind of assay: self-acylation, HPLC-MS of intact protein. In kind it is biochemical. To be noted: 200 uM acyl-CoA, 20 uM AT, pH 8.0, 25 C, 1 h; covalent acyl-enzyme.
Text: as §4

In assay [9] the target is T6, AT4FkbB of FK506 PKS (Streptomyces tsukubensis, UniProt W8RMH0, Q6687A/L6753I/V6754D/V6755T/F6771L).
T6 construct: gene fkbB; excised AT domain of module 4 of FkbB, E. coli BL21(DE3), Ni-NTA
T6 sequence (W8RMH0 entry or part of it Q6687A/L6753I/V6754D/V6755T/F6771L): as the sequence (W8RMH0 entry or part of it) above, with Q119A, L185I, V186D, V187T, F203L counted along it
Kind of assay: self-acylation, HPLC-MS of intact protein. In kind it is biochemical. To be noted: 200 uM acyl-CoA, 20 uM AT, pH 8.0, 25 C, 1 h; covalent acyl-enzyme.
Text: as §4

Assay [10] concerns the target T7, AT4FkbB of FK506 PKS (Streptomyces tsukubensis, UniProt W8RMH0, V6755K).
T7 construct: gene fkbB; excised AT domain of module 4 of FkbB, E. coli BL21(DE3), Ni-NTA
Kind of assay: self-acylation, HPLC-MS of intact protein. In kind it is biochemical. To be noted: 200 uM acyl-CoA, 20 uM AT, pH 8.0, 25 C, 1 h; covalent acyl-enzyme.
Text: as §4

In assay [11] the target is T8, AT4FkbB of FK506 PKS (Streptomyces tsukubensis, UniProt W8RMH0, Q6687A).
T8 construct: gene fkbB; excised AT domain of module 4 of FkbB, E. coli BL21(DE3), Ni-NTA
T8 sequence (W8RMH0 entry or part of it Q6687A): as the sequence (W8RMH0 entry or part of it) above, with Q119A counted along it
Kind of assay: self-acylation, HPLC-MS of intact protein. Format: biochemical. To be noted: 200 uM acyl-CoA, 20 uM AT, pH 8.0, 25 C, 1 h; covalent acyl-enzyme.
Text: as §4

Assay [12] can be described thus: self-acylation, HPLC-MS of intact protein. In kind it is biochemical, Streptomyces virginiae. To be noted: 200 uM acyl-CoA, 20 uM AT, pH 8.0, 25 C, 1 h; covalent acyl-enzyme.
Text: as §3

Assay [13] deals with T3, AT5monAIV of monensin PKS. Kind of assay: trans-acylation of holo-ACP10FkbA, HPLC-MS. Format: biochemical. The conditions noted are these: 16 uM acyl-CoA, 16 uM holo-ACP10FkbA, 1.6 uM AT, pH 8.0, 25 C, 2 h. The source says: trans-acylation of holo-ACP10FkbA, HPLC-MS on AT5monAIV of monensin PKS

T1 sequence (Q9KIE0 entry or part of it): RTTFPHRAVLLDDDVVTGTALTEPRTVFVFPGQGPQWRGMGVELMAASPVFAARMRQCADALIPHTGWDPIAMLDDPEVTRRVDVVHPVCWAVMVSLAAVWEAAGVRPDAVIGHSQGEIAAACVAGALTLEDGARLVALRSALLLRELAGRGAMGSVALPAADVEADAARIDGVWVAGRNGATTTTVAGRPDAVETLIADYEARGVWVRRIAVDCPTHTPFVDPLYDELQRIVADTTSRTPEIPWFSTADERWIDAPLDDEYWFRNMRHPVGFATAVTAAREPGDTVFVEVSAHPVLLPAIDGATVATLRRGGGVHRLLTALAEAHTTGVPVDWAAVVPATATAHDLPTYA
T2 sequence (B6ZK65 entry or part of it): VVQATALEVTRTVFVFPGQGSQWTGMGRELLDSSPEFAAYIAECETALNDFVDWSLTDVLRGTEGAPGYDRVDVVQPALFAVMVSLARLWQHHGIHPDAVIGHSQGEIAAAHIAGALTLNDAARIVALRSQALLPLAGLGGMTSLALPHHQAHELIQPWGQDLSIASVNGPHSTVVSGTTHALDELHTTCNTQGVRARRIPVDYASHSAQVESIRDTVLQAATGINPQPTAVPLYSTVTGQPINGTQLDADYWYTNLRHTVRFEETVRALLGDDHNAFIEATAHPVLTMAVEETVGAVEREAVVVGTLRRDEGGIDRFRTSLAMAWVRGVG
T7 sequence (W8RMH0 entry or part of it V6755K): as the sequence (W8RMH0 entry or part of it) above, with V187K counted along it

Consider `C=CCC(C(=O)O)C(=O)SCCNC(=O)CCNC(=O)[C@H](O)C(C)(C)COP(=O)(O)OP(=O)(O)OC[C@H]1O[C@@H](n2cnc3c(N)ncnc32)[C@H](O)[C@@H]1OP(=O)(O)O` (some centres unmarked) [allmal-CoA], for which the “Self-acylation reaction (%) / Allmal-AT4FkbB^∗” value at AT4FkbB of FK520 PKS [1] was found to be 31.5%; on AT4FkbB of FK520 PKS [2], 58.2%; in assay [3], 41.4%; on AT4FkbB of FK520 PKS [4], 61.3%; in [5] it was 17.8%; in [6], 49.8%. Also, the “Self-acylation reaction (%) / Allmal-AT4^∗FkbB” value at AT4FkbB of FK506 PKS [7] was 69.7%; on AT4FkbB of FK506 PKS [8], 28.0%; at AT4FkbB of FK506 PKS [9] it was 27.1%; on AT4FkbB of FK506 PKS [10], 78.8%; at AT4FkbB of FK506 PKS [11] it was 29.2%.
Consider `CCC(C(=O)O)C(=O)SCCNC(=O)CCNC(=O)[C@H](O)C(C)(C)COP(=O)(O)OP(=O)(O)OC[C@H]1O[C@@H](n2cnc3c(N)ncnc32)[C@H](O)[C@@H]1OP(=O)(O)O` (some centres unmarked) [ethmal-CoA], for which the “Self-acylation reaction (%) / Ethmal-AT4FkbB^∗” value on AT4FkbB of FK520 PKS [1] is 65.1%; in assay [5], 78.1%; in assay [12], 63.7%. In addition, the “Self-acylation reaction (%) / Ethmal-AT4^∗FkbB” value amounted to 62.0% on AT4FkbB of FK506 PKS [7] and 32.3% on AT4FkbB of FK506 PKS [10].
With `CC(C(=O)O)C(=O)SCCNC(=O)CCNC(=O)[C@H](O)C(C)(C)COP(=O)(O)OP(=O)(O)OC[C@H]1O[C@@H](n2cnc3c(N)ncnc32)[C@H](O)[C@@H]1OP(=O)(O)O` (some centres unmarked) [MM-CoA], the “Trans-acylation reaction (%) / MM-ACP10FkbA” value in assay [13] is recorded as 51.2%.
